Consider one compound from publication PMC5817723, “^99mTc-HYNIC-(tricine/EDDA)-FROP peptide for MCF-7 breast tumor targeting and imaging” (Journal of Biomedical Science, 2018).

In series [1] the test system is MCF-7 tumor bearing mouse. Kind of series: Planar gamma camera tumor imaging. The format is in vivo. The note with it: MCF-7 xenograft nude mouse, i.v., 15 min p.i. As for the experimental part:
For gamma camera imaging, MCF-7 tumor bearing mouse was intravenously injected through the tail with ^99mTc-HYNIC-FROP. After 15 min p.i. the mouse immediately was anesthetized using ketamine/xylazine and whole-body dynamic imaging was conducted. The imaging was performed at the department of radiology at Mazandaran Hospital by a dual-head e.cam gamma camera (Siemens Medical Systems, Inc.), equipped with a low-energy, high-resolution collimator. The evaluation of the image was performed using an e-soft (Siemens Medical Systems).

Series [2] in a line: Stability in human plasma serum, RP-HPLC. The format is in vitro ADME. The note with it: 37 °C, triplicate. The procedure: Reversed phase-HPLC was performed on a Knauer HPLC systems (Knauer HPLC, Berlin, Germany) using a Lablogic radioactivity gamma detector with a Eurospher 100–5 C-18, 4.6 × 250 mm (Knauer, Berlin, Germany) column with a pre-column. (Knauer HPLC, Berlin, Germany) HPLC was run using a gradient of 0.1% TFA in H2O (solvent A) and 0.1% TFA in CH3CN (solvent B) at a flow rate of 1 mL/min. A gradient with solvents A and B was run as follows: 0 min, 10% B; 0–10 min, 10–30% B; 10–20 min, 30–80% B; and 20–25 min, 80–100% B, for a total time of 30 min.
(§1) The stability of ^99mTc-HYNIC-FROP in normal saline was evaluated using ITLC at various times (2, 4, 6 and 24 h) at room temperature. For serum stability, ^99mTc-HYNIC-FROP (30 μL) was incubated with freshly human plasma serum (90 μL) in triplicate at 37 °C. At 1 h of incubation, the plasma proteins were precipitated with a mixture of acetonitrile/ethanol (1:1 v/v) and centrifugation. The supernatant layer was filtered through a 0.22 μm filter and then the fraction was analyzed by RP-HPLC. Partition coefficient of ^99mTc-HYNIC-FROP was determined via method that previously was described.

A short description of series [3]: Partition coefficient between n-octanol and PBS. The format is physicochemical. The note with it: distribution between n-octanol and PBS; method of ref 22; mean ± SD; read-out: Log p (partition coefficient). The procedure: as §1
Series [4] has as its system MCF-7 cells. Kind of series: In vitro specific binding (blocking) on MCF-7 cells. The format is cell-based, human. The note with it: pre-saturation 0.5 h at 37 °C with unlabeled FROP. The procedure: For specific binding experiment, the MCF-7 cells were saturated with 500-fold excess of unlabeled peptide prior adding of the ^99mTc-HYNIC-FROP to cells for 30 min.
The nature of series [5]: In vitro stability in normal saline at room temperature. The format is physicochemical. The note with it: TLC, n = 3. The procedure: The radiochemical purity was determined by instant thin layer chromatography (ITLC) in different mobile phases such as methyl ethyl ketone (MEK), acetonitrile/water (50/50) and citrate solvent (0.1 M, pH 5.2) using a Lablogic mini scan TLC scanner (Sheffield, UK) and Laura image analysis software. In MEK, free ^99mTcO4^− migrated with the solvent front, while radiolabeled peptide remained at the application point. In the acetonitrile/water system, the colloids remained at the application point, while radiolabeled peptide migrated in front of solvent. The amount of labeled co-ligand was determined by citrate solvent, that free ^99mTcO4 Na and labeled co-ligand migrate in front of solvent while both RHT and labeled peptide (^99mTc-FROP) remind at the origin. A NaI (Tl) gamma detector (Delshid, Tehran, Iran) was used to for measurement of radioactivity.
as §1

The subject of series [6] is MCF-7 cells. As to the kind of experiment: Saturation binding assay on MCF-7 cells. The note with it: saturation 30–250 nM, 30 min, nonlinear regression. Also noted: species or system human. As for the experimental part:
The cell-binding affinity of ^99mTc-HYNIC-FROP was assessed with saturation method. For determining of […] (Kd) and total number of binding sites (Bmax), ^99mTc-HYNIC-FROP was prepared in high radiochemical purity. MCF-7 cells were seeded into 24-well plates and incubated overnight. Then cells were incubated with various concentrations of radiolabeled peptide (30–250 nM) for 30 min. One dish was added blocking solution containing of 500-fold excess of highest concentration of ^99mTc-HYNIC-FROP. The cells were then washed with cold serum free medium to remove free radioactivity. The cells with bound radioactivity detached with trypsin and collected and radioactivity was measured. The (Kd) and (Bmax) value were calculated using Graphpad prism software based on specific binding of ^99mTc-HYNIC-FROP on MCF-7 cells.

The subject of series [7] is MCF-7 cells. As to the kind of experiment: Internalization study in MCF-7 cells. The format is cell-based, human. The note with it: MCF-7, 40 nM, acid wash urea buffer pH 2.5. As for the experimental part:
For internalization experiment, MCF-7 cells (1 × 10^6 cells) were seeded on the single plates and incubated with ^99mTc-HYNIC-FROP (40 nM) at 4 °C. After 1 h incubation, medium was removed and cells were washed with ice-cold serum free medium. Then 1 mL complete medium was added to each dish and cells were further incubated for 0.5, 1, 2, 6 and 24 h at 37 °C. After incubation, medium was removed from cellular plate and then was washed once with cold serum free medium. Then supernatant was collected, and for removing radioactivity bound to the surface of the cells, the acid wash with urea buffer (pH 2.5) was used. The internalized radiolabeled peptide was recovered by solubilizing the cells with 1 M NaOH at 37 °C for 5 min, and the surface-bound (acid-wash) and internalized (acid-resistant) radioactivity were measured with the gamma counter.

The mark [8] stands for this setting: listed as 99mTc-HYNIC-(tricine/EDDA)-FROP.

The structures appear in SMILES notation. “Also recorded” adds a separate entry of the source. Residues, ends and D or L forms follow the SMILES beside them. *: point of attachment. HYNIC = NNc1ccc(C(=O)*)cn1

Turning to `CSCC[C@H](NC(=O)[C@H](CC(C)C)NC(=O)[C@H](CCC(=O)O)NC(=O)[C@H](Cc1ccc(O)cc1)NC(=O)[C@H](CC(=O)O)NC(=O)[C@@H](N)CCC(=O)O)C(=O)N[C@@H](CC(=O)O)C(=O)N[C@@H](CC(C)C)C(=O)N[C@@H](CC(C)C)C(=O)N[C@@H](C)C(=O)N[C@@H](Cc1ccc(O)cc1)C(=O)N[C@@H](CC(C)C)C(=O)N[C@@H](CCCCNC(=O)c1ccc(NN)nc1)C(=O)O` [^99mTc-HYNIC-FROP, metal not drawn] (H-EDYELMDLLAYLK(HYNIC)-OH), the “tumor visualization by planar gamma imaging” value in series [1] is listed as “tumor was clearly visualized”; in series [1] (setting [8]), “tumor was clearly visible”. In addition, the “stability in human plasma serum” value in series [2] (30 μL in 90 μL fresh human plasma serum, 1 h, RP-HPLC radiodetection) is recorded as “stable; also recorded: the major radioactivity was still associated with ^99mTc-FROP”. Also, the amount remaining – broadly, what is left of the initial amount, in per cent – at 1 h in series [2] (abstract statement, human plasma serum, protein precipitation acetonitrile/ethanol 1:1, RP-HPLC) was about 98%. Moreover, in series [3], the logD was -2.03 ± 0.03. The “binding to MCF-7 cells with 500-fold excess of unlabeled peptide (FROP)” value in the series on MCF-7 cells [4] is on record as “significant reduction”. Further, the “%RCP in normal saline” value in series [5] (2 h) was determined as 99.5 ± 0.4%; in series [5] (4 h) it was 99.1 ± 0.9%; in series [5] (6 h) it was 99 ± 0.8%; in series [5] (24 h), 94.6 ± 2.7%. Also, the “Bmax (maximum number of binding sites)” value in the series with MCF-7 cells [6] (listed as 99mTc-HYNIC-(tricine-EDDA)-Lys-FROP) is given as 4.5 ± 0.6 × 10^7 CPM/pMol; in the series with MCF-7 cells [6] (setting [8]) it was “(4.5±0.6)·10^7 CPM/pMol”. Further, the “internalized radiolabeled peptide, % of the total radioactivity in the cells” value in the series on MCF-7 cells [7] (1 h at 4 °C then 30 min at 37 °C) is recorded as 10.6 ± 0.8%; with MCF-7 cells [7] (1 h at 4 °C then 6 h at 37 °C), 18.3 ± 2.3%.
